Data on two compounds can be found in ChEMBL document CHEMBL1914376, “Synthesis and in vitro evaluation of 7-methoxy-N-(pent-4-enyl)-1,2,3,4-tetrahydroacridin-9-amine-new tacrine derivate with cholinergic properties” (Bioorg Med Chem Lett, 2011).

In one test the target is Cholinesterase (Homo sapiens, UniProt P06276).
The target in test [1] is T1, Acetylcholinesterase (Homo sapiens, UniProt P22303).
Description: Inhibition of human recombinant AChE after 5 mins using spectrophotometer by Ellman's method
In test [2] the target is T1, Acetylcholinesterase. As to the kind of experiment: Ratio of 7-MEOTA IC50 to compound IC50 for human recombinant AChE.
The target in test [3] is T1, Acetylcholinesterase. Briefly: Ratio of Tacrine IC50 to compound IC50 for human recombinant AChE.

T1 sequence (P22303 whole entry): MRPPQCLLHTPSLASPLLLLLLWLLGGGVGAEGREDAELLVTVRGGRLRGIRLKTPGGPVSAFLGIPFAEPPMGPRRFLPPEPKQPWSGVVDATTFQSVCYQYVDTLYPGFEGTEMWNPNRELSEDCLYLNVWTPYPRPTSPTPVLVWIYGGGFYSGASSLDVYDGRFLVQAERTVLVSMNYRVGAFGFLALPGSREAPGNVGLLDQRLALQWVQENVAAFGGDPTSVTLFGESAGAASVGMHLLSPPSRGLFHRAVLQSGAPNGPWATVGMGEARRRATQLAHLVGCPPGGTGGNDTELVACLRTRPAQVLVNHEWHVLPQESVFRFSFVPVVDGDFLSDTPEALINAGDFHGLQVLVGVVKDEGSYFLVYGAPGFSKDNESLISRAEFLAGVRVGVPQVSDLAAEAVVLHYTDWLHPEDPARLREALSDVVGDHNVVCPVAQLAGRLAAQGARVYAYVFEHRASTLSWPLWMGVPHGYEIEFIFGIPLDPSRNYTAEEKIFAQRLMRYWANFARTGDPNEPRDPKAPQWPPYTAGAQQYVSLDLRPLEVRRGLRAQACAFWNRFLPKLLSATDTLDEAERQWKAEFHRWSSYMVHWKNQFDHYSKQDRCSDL
Sequence of Cholinesterase (P06276 whole entry): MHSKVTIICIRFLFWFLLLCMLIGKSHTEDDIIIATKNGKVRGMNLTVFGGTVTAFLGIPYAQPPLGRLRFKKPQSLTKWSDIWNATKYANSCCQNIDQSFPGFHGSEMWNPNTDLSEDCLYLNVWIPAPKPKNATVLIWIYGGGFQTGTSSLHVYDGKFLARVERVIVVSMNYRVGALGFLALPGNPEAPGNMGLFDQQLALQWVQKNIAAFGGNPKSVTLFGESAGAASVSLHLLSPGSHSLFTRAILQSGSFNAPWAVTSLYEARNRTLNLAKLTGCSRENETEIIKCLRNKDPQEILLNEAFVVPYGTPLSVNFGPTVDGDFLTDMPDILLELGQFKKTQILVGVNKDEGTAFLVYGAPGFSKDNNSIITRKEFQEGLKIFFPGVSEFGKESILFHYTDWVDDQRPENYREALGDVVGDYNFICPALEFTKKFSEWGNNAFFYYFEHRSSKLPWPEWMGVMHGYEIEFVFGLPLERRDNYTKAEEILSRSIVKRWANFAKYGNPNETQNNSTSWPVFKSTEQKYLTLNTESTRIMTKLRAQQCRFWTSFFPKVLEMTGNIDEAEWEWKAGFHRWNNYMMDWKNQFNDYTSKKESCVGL

What is called IC50 is the concentration at which inhibition is half-maximal. Regarding `COc1ccc2nc3c(c(N4CCCCCN(c5c6c(nc7ccc(OC)cc57)CCCC6)CCCCC4)c2c1)CCCC3`, the IC50 was 656 µM on Cholinesterase and 4.6 µM at Acetylcholinesterase [1].
Take `C=CCCCNc1c2c(nc3ccc(OC)cc13)CCCC2`: the IC50 on Cholinesterase was 1.1 µM; against Acetylcholinesterase [1] it was 2.2 µM. Moreover, the Ratio IC50 came out at 5 at Acetylcholinesterase [2] and 10 at Acetylcholinesterase [3].
